Test results taken from patent EP0367671B1, “Novel beta-D-phenylthioxylosides, their method of preparation and their use as pharmaceuticals” (FOURNIER INDUSTRIE ET SANTE, priority 1988, dated 1990).

Each compound was assayed on venous thrombosis (assay: venous thrombosis protocol (venous stasis under hypercoagulation with activated factor X, Wessler technique; thrombus removed and weighed)). Conditions: Rattus norvegicus, po; 12.5 mg/kg p.o., suspension in PEG 400; thrombosis induced 4 hours after treatment; unfasted male Wistar rats.
Format: in vivo
Description: A venous stasis is produced under hypercoagulation according to the technique described by WESSLER et al. (J. Applied Physiol. 1959, p. 943-946). As in the technique described by J. HAUPMAN et al. (Thrombosis and Haemostasis 43 (2) 1980, p. 118), the hypercoagulant used is a solution of activated factor X (Xa) supplied by the company Flow Laboratories (71 Knat per 12.5 ml of physiological serum).
The study is performed on unfasted male Wistar rats weighing 250 to 280 g and divided up into groups of 10 animals each. The test products are administered orally as a suspension in PEG 400. A thrombosis is induced 4 hours after this treatment and the thrombus formed is removed and weighed.
The results obtained at a dose of 12.5 mg/kg p.o. have been collated in Table I. The results obtained with the known products of the above-mentioned prior art have also been collated in this Table.

Row | SMILES | inhibition in vivo at 12.5 mg/kg [%]
1 | N#Cc1ccc(C(=O)c2ccccc2S[C@@H]2SC[C@@H](O)[C@H](O)[C@H]2O)cc1 [Example 4, (2-(4-cyanobenzoyl)phenyl)-1,5-dithio-β-D-xylopyranoside] | 88
2 | O=C(c1ccccc1)c1ccccc1S[C@@H]1SC[C@@H](O)[C@H](O)[C@H]1O [Example 3, (2-benzoylphenyl)-1,5-dithio-β-D-xylopyranoside] | 4
3 | N#Cc1cccc(C(=O)c2ccccc2S[C@@H]2SC[C@@H](O)[C@H](O)[C@H]2O)c1 [Example 6, (2-(3-cyanobenzoyl)phenyl)-1,5-dithio-β-D-xylopyranoside] | 59
4 | N#Cc1cccc(C(O)c2ccccc2S[C@@H]2SC[C@@H](O)[C@H](O)[C@H]2O)c1 (stereo partly drawn) [Example 7, (2-(3-cyanophenylhydroxymethyl)phenyl)-1,5-dithio-β-D-xylopyranoside] | 54
5 | N#Cc1ccc(C(O)c2cc(C(F)(F)F)ccc2S[C@@H]2SC[C@@H](O)[C@H](O)[C@H]2O)cc1 (stereo partly drawn) [Example 10, (2-(4-cyanophenylhydroxymethyl)-4-trifluoromethylphenyl)-1,5-dithio-β-D-xylopyranoside] | 61
6 | N#Cc1ccc(C(O)c2ccccc2S[C@@H]2SC[C@@H](O)[C@H](O)[C@H]2O)cc1 (stereo partly drawn) [Example 5, (2-(4-cyanophenylhydroxymethyl)phenyl)-1,5-dithio-β-D-xylopyranoside] | 62
7 | N#Cc1ccccc1C(=O)c1ccccc1S[C@@H]1SC[C@@H](O)[C@H](O)[C@H]1O [Example 8, (2-(2-cyanobenzoyl)phenyl)-1,5-dithio-β-D-xylopyranoside] | 57
8 | N#Cc1ccc(C(=O)c2cc(C(F)(F)F)ccc2S[C@@H]2SC[C@@H](O)[C@H](O)[C@H]2O)cc1 [Example 9, (2-(4-cyanobenzoyl)-4-trifluoromethylphenyl)-1,5-dithio-β-D-xylopyranoside] | 56.5
9 | N#Cc1ccc(S[C@@H]2SC[C@@H](O)[C@H](O)[C@H]2O)c(C(=O)c2ccccc2)c1 [Example 1, (2-benzoyl-4-cyanophenyl)-1,5-dithio-β-D-xylopyranoside] | 69
10 | N#Cc1ccc(S[C@@H]2SC[C@@H](O)[C@H](O)[C@H]2O)c(C(O)c2ccccc2)c1 (stereo partly drawn) [Example 2, (4-cyano-2-phenylhydroxymethylphenyl)-1,5-dithio-β-D-xylopyranoside] | 61
11 | CC(=O)O[C@@H]1[C@@H](OC(C)=O)[C@H](Sc2ccc(C#N)cc2C(=O)c2ccccc2)SC[C@H]1OC(C)=O [Example 1a, (2-benzoyl-4-cyanophenyl)-2,3,4-tri-O-acetyl-1,5-dithio-β-D-xylopyranoside] | 43.8
